# Laboratory results from ChEMBL document CHEMBL5576070, “The recent discovery of a promising pharmacological scaffold derived from carvacrol: A review” (Bioorg Med Chem Lett, 2024).
# pIC50: −log10 of the molar value.
# Legend:
# Acetylcholinesterase [1] = biological target: T1, Acetylcholinesterase (Homo sapiens, UniProt P22303); assay: Inhibition of AChE (unknown origin)
# Cholinesterase = Cholinesterase (Homo sapiens, UniProt P06276); assay: Inhibition of human BChE using butyrylthiocholine iodide as substrate incubated for 15 mins by spectrophotometric Ellman's method
# Sequence of Cholinesterase (P06276 whole entry): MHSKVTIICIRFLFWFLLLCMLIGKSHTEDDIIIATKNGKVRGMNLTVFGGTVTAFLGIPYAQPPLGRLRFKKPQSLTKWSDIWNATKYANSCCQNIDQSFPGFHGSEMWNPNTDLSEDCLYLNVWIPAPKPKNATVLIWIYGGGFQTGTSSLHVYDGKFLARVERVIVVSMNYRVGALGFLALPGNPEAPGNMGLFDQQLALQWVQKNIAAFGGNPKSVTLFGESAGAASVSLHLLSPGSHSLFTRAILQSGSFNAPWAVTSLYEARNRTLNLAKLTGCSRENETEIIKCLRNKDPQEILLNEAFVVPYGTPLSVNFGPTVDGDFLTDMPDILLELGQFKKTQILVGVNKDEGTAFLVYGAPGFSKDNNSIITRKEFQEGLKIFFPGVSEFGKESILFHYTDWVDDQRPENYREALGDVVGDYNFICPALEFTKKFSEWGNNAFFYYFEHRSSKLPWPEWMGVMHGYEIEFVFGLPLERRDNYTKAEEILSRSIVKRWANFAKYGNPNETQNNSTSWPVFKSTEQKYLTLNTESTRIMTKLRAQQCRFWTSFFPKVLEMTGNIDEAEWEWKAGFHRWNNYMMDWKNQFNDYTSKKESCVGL
# Escherichia coli [2] = assay: microbe, parasite or virus in culture; conditions: ATCC 25922, 24 h
# Phytophthora capsici = assay: Antifungal activity against Phytophthora capsici; type: functional, organism-based
# [3] = Antioxidant activity assessed as DPPH radical scavenging activity incubated for 20 mins by spectrophotometric method; type: functional
# [4] = tested on: Staphylococcus epidermidis; assay: Antimicrobial activity against Staphylococcus epidermidis ATCC 12228 assessed as reduction in bacterial growth incubated for 24 hrs by Mueller-Hinton agar based analysis; type: functional
# Staphylococcus aureus [5] = assay: Antimicrobial activity against Staphylococcus aureus […] assessed as reduction in bacterial growth incubated for 24 hrs by Mueller-Hinton agar based analysis; type: functional
# Pseudomonas aeruginosa = assay: Antibacterial activity against Pseudomonas aeruginosa ATCC 15442 assessed as reduction in bacterial growth incubated for 24 hrs by Mueller-Hinton agar based analysis; type: functional
# Escherichia coli [6] = assay: Antibacterial activity against Escherichia coli assessed as reduction in bacterial growth incubated for 24 hrs by Mueller-Hinton agar based analysis; type: functional
# MIA PaCa-2 = assay: Growth inhibition of human MIA PaCa-2 cells measured for 48 hrs by SRB assay; type: functional
# Staphylococcus aureus [7] = assay: Antibacterial activity against Staphylococcus aureus ATCC 25923 assessed as zone of inhibition by agar diffusion method; type: functional
# Proteus vulgaris = assay: Antimicrobial activity against Proteus vulgaris NCIM 2813 assessed as zone of inhibition incubated for 24 hrs by agar diffusion method; type: functional
# Bacillus subtilis = assay: Antibacterial activity against Bacillus subtilis assessed as zone of inhibition; type: functional
# Mushroom tyrosinase = Mushroom tyrosinase (Agaricus bisporus, UniProt O42713+Q00024+C7FF04+C7FF05); assay: Inhibition of mushroom tyrosinase using L-DOPA as substrate by spectrophotometric analysis; type: protein assay
# Acetylcholinesterase [8] = biological target: T1, Acetylcholinesterase; assay: Inhibition of AChE (unknown origin) using acetylthiocholine iodide as substrate by Ellman's method
# Salmonella typhimurium [9] = assay: Antibacterial activity against Salmonella typhimurium DT104 assessed as inhibition of bacterial growth incubated for 18 hrs by CLSI protocol based microbroth dilution method; type: functional, Salmonella enterica subsp. enterica serovar Typhimurium; conditions: Salmonella enterica
# Helicobacter pylori = assay: Antibacterial activity against Helicobacter pylori assessed as reduction in bacterial growth incubated for 24 hrs by broth micro-dilution method; type: functional
# Clostridium perfringens [10] = assay: Antibacterial activity against Clostridium perfringens assessed as reduction in bacterial growth inhibition; type: functional
# Salmonella typhimurium [11] = assay: Antibacterial activity against Salmonella typhimurium DT104 assessed as reduction in bacterial growth inhibition; type: functional, Salmonella enterica subsp. enterica serovar Typhimurium
# Escherichia coli [12] = assay: Antibacterial activity against Escherichia coli assessed as reduction in bacterial growth inhibition; type: functional
# Salmonella enteritidis = assay: Antibacterial activity against Salmonella enterica subsp. enterica serovar Enteritidis assessed as reduction in bacterial growth inhibition; type: functional
# Clostridium perfringens [13] = assay: Antibacterial activity against Clostridium perfringens assessed as bacterial growth inhibition after 24 hrs by microdilution method; type: functional
# T1 sequence (P22303 whole entry): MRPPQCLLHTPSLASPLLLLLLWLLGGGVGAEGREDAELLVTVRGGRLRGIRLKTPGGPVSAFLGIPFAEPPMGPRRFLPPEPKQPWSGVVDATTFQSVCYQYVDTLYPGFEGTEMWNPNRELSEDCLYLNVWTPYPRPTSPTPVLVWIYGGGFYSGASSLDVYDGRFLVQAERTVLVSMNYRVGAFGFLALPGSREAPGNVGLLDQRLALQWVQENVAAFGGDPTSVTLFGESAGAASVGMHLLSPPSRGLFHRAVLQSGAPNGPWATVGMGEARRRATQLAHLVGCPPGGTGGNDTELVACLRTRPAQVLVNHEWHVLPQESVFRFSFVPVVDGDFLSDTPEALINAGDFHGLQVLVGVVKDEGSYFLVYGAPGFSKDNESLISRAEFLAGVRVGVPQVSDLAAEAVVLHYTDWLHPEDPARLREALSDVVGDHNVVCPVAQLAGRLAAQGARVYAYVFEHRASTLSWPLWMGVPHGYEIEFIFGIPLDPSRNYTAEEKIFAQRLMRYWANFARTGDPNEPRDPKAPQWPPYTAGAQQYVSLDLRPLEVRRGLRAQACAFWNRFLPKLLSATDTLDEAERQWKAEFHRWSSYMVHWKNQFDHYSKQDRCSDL
structure (smiles),measurement,setting,value
Cc1ccc(C(C)C)cc1OCC(=O)N(C(C)C)C(C)C,pIC50,Acetylcholinesterase [1],5.71
same,pIC50,Cholinesterase,7.30
C/C=C/C(=O)Oc1cc(C(C)C)ccc1C,MIC,Escherichia coli [2],11.7 µg/mL
CCC(C)(NC(=O)c1cc(Cl)c(C)c(Cl)c1)C(=O)CCl (stereo not given) [ZOXAMIDE],EC50,Phytophthora capsici,0.0268 µg/mL
Cc1ccc(C(C)C)cc1OCC(=O)N/N=C/c1c(C(C)C)ccc(C)c1O,IC50,[3],0.16 µg/mL
COc1ccc(CCNC(=O)COc2cc(C(C)C)ccc2C)cc1OC,pIC50,Acetylcholinesterase [1],5.71
same,pIC50,Cholinesterase,7.30
C#CCSC[C@H](NC(C)=O)C(=O)Oc1cc(C(C)C)ccc1C,MIC,[4],5 µg/mL
same,MIC,Staphylococcus aureus [5],10 µg/mL
same,MIC,Pseudomonas aeruginosa,10 µg/mL
same,MIC,Escherichia coli [6],10 µg/mL
Cc1ccc(C(C)C)cc1OC(=O)C(C)C,MIC,Escherichia coli [2],11.7 µg/mL
CCC(=O)Oc1cc(C(C)C)ccc1C,MIC,Escherichia coli [2],11.7 µg/mL
Cc1ccc(C(C)C)c(/C=N/Nc2ccc(Cl)nn2)c1O,GI50,MIA PaCa-2,80 µg/mL
Cc1ccc(C(C)C)cc1OCC(=O)Nc1ccc(Cl)cc1,inhibition zone (IZ),Staphylococcus aureus [7],20 mm
same,inhibition zone (IZ),Proteus vulgaris,10 mm
same,inhibition zone (IZ),Bacillus subtilis,18 mm
CSC[C@H](NC(C)=O)C(=O)Oc1cc(C(C)C)ccc1C,MIC,[4],2.5 µg/mL
same,MIC,Staphylococcus aureus [5],10 µg/mL
same,MIC,Pseudomonas aeruginosa,10 µg/mL
same,MIC,Escherichia coli [6],10 µg/mL
CCCNC(=O)COc1cc(C(C)C)ccc1C,pIC50,Acetylcholinesterase [1],5.71
same,pIC50,Cholinesterase,7.30
Cc1ccc(C(C)C)cc1OCC(=O)NCCN1CCOCC1,pIC50,Acetylcholinesterase [1],5.71
same,pIC50,Cholinesterase,7.30
Cc1ccc(C(C)C)cc1OCC(=O)NCCN1CCN(C)CC1,pIC50,Acetylcholinesterase [1],5.71
same,pIC50,Cholinesterase,7.30
CCCCCCCNC(=O)COc1cc(C(C)C)ccc1C,inhibition zone (IZ),Proteus vulgaris,7 mm
same,inhibition zone (IZ),Bacillus subtilis,6 mm
Cc1cc(CO)c(C(C)C)cc1O,IC50,[3],156 µg/mL
Cc1ccc(C(C)C)cc1OC(=O)COC(=O)c1cccc(O)c1,IC50,Mushroom tyrosinase,14900 nM
Cc1ccc(C(C)C)cc1OCC(=O)NCCN1CCCC1,pIC50,Acetylcholinesterase [1],5.71
same,pIC50,Cholinesterase,7.30
Cc1cc(Cc2cc(C)c(O)cc2C(C)C)c(C(C)C)cc1O,IC50,[3],122 µg/mL
Cc1ccc(C(C)C)cc1OC(=O)CCCC[C@@H]1CCSS1,MIC,[4],10 µg/mL
same,MIC,Staphylococcus aureus [5],10 µg/mL
same,MIC,Pseudomonas aeruginosa,5 µg/mL
same,MIC,Escherichia coli [6],5 µg/mL
C[Se]CC[C@H](NC(C)=O)C(=O)Oc1cc(C(C)C)ccc1C,MIC,[4],5 µg/mL
same,MIC,Staphylococcus aureus [5],10 µg/mL
same,MIC,Pseudomonas aeruginosa,5 µg/mL
same,MIC,Escherichia coli [6],5 µg/mL
Cc1ccc(C(C)C)cc1OCC(=O)N1Cc2ccccc2C1,pIC50,Acetylcholinesterase [1],5.71
same,pIC50,Cholinesterase,7.30
CCSC[C@H](NC(C)=O)C(=O)Oc1cc(C(C)C)ccc1C,MIC,[4],10 µg/mL
same,MIC,Staphylococcus aureus [5],10 µg/mL
same,MIC,Pseudomonas aeruginosa,10 µg/mL
same,MIC,Escherichia coli [6],10 µg/mL
CCS(=O)(=O)Oc1cc(C(C)C)ccc1C,EC50,Phytophthora capsici,0.0666 µg/mL
Cc1ccc(C(C)C)cc1OC(=O)COC(=O)c1ccc(O)cc1O,IC50,Mushroom tyrosinase,6700 nM
Cc1ccc(C(C)C)cc1OCC(O)CNCc1cccnc1 (stereo not given),pIC50,Acetylcholinesterase [8],6.87
Cc1ccc(C(C)C)cc1OCC(=O)N1CCCCC1,pIC50,Acetylcholinesterase [1],5.71
same,pIC50,Cholinesterase,7.30
Cc1ccc(C(C)C)cc1OC(=O)CC(C)C,MIC,Escherichia coli [2],11.7 µg/mL
Cc1ccc(C(C)C)cc1OCC(=O)O,MIC,Salmonella typhimurium [9],0.1 µg/mL
Cc1cc(C)c(S(=O)(=O)N/N=C/c2c(C(C)C)ccc(C)c2O)c(C)c1,GI50,MIA PaCa-2,10 µg/mL
Cc1ccc(C(C)C)cc1OC(=O)COC(=O)c1ccc(O)c(O)c1,IC50,Mushroom tyrosinase,15900 nM
Cc1ccc(C(C)C)cc1OCC(O)CNC(C)(C)C (stereo not given),pIC50,Acetylcholinesterase [8],6.87
Cc1ccc(C(C)C)cc1OCC(=O)NC1CCCCC1,pIC50,Acetylcholinesterase [1],5.71
same,pIC50,Cholinesterase,7.30
Cc1ccc(C(C)C)cc1OCC(=O)NCCC1=CCCCC1,pIC50,Acetylcholinesterase [1],5.71
same,pIC50,Cholinesterase,7.30
CC(=O)Oc1cc(C(C)C)ccc1C,MIC,Escherichia coli [2],11.7 µg/mL
Cc1ccc(C(C)C)cc1OCC(=O)Nc1cccc(Cl)c1,inhibition zone (IZ),Staphylococcus aureus [7],17 mm
same,inhibition zone (IZ),Proteus vulgaris,16 mm
same,inhibition zone (IZ),Bacillus subtilis,21 mm
CNC(=O)COc1cc(C(C)C)ccc1C,pIC50,Acetylcholinesterase [1],5.71
same,pIC50,Cholinesterase,7.30
Cc1ccc(C(C)C)cc1OCC(=O)Nc1ccccc1,inhibition zone (IZ),Bacillus subtilis,8 mm
Cc1ccc(C(C)C)cc1OC(=O)[C@@H]1CSC(=O)N1,MIC,[4],10 µg/mL
same,MIC,Staphylococcus aureus [5],10 µg/mL
same,MIC,Pseudomonas aeruginosa,10 µg/mL
same,MIC,Escherichia coli [6],10 µg/mL
CCOc1cc(C(C)C)ccc1C,MIC,Salmonella typhimurium [9],0.2 µg/mL
Cc1ccc(C(C)C)cc1OCC(=O)NCc1ccc2c(c1)OCO2,pIC50,Acetylcholinesterase [1],5.71
same,pIC50,Cholinesterase,7.30
Cc1ccc(C(C)C)cc1OC(=O)Cc1ccccc1,MIC,Escherichia coli [2],11.7 µg/mL
Cc1ccc(C(C)C)cc1OS(=O)(=O)c1cccs1,EC50,Phytophthora capsici,0.06124 µg/mL
Cc1ccc(C(C)C)cc1OCc1ccc(S(C)(=O)=O)cc1,MIC,Helicobacter pylori,2 µg/mL
CC(=O)N[C@@H](CS)C(=O)Oc1cc(C(C)C)ccc1C,MIC,[4],5 µg/mL
same,MIC,Staphylococcus aureus [5],10 µg/mL
same,MIC,Pseudomonas aeruginosa,10 µg/mL
same,MIC,Escherichia coli [6],10 µg/mL
Cc1ccc(C(C)C)cc1OC(=O)COC(=O)/C=C/c1ccc(Cl)cc1,IC50,Mushroom tyrosinase,6700 nM
C=CCNCC(O)COc1cc(C(C)C)ccc1C (stereo not given),pIC50,Acetylcholinesterase [8],6.87
Cc1ccc(C(C)C)cc1OC(=O)c1ccccc1,MIC,Escherichia coli [2],11.7 µg/mL
Cc1ccc(C(C)C)c(/C=N/c2c(C(C)C)ccc(C)c2O)c1O,GI50,MIA PaCa-2,16.9 µg/mL
Cc1cc(S(=O)(=O)O)c(C(C)C)cc1O,MIC,Clostridium perfringens [10],0.37 %v/v
same,MIC,Salmonella typhimurium [11],0.75 %v/v
same,MIC,Escherichia coli [12],0.75 %v/v
same,MIC,Salmonella enteritidis,0.37 %v/v
Cc1ccc(C(C)C)cc1OC(=O)[C@@H]1CSCN1C(=O)C(F)(F)F,MIC,[4],2.5 µg/mL
same,MIC,Staphylococcus aureus [5],5 µg/mL
same,MIC,Pseudomonas aeruginosa,10 µg/mL
same,MIC,Escherichia coli [6],5 µg/mL
Cc1ccc(C(C)C)cc1OC(=O)Cn1c([N+](=O)[O-])cnc1C,MIC,Clostridium perfringens [13],2.7 µg/mL
Cc1ccc(C(C)C)cc1OCC(=O)NCCNc1cccc2cccnc12,pIC50,Acetylcholinesterase [1],5.71
same,pIC50,Cholinesterase,7.30
Cc1ccc(C(C)C)cc1OCC(O)CNCCC1=CCCCC1 (stereo not given),pIC50,Acetylcholinesterase [8],6.87
C=CCSC[C@H](NC(C)=O)C(=O)Oc1cc(C(C)C)ccc1C,MIC,[4],2.5 µg/mL
same,MIC,Staphylococcus aureus [5],2.5 µg/mL
same,MIC,Pseudomonas aeruginosa,5 µg/mL
same,MIC,Escherichia coli [6],2.5 µg/mL
Cc1cccc(COc2cc(C(C)C)ccc2C)c1,MIC,Helicobacter pylori,2 µg/mL
Cc1ccc(C(C)C)cc1OC(=O)COC(=O)/C=C/c1ccccc1,IC50,Mushroom tyrosinase,7700 nM
Cc1cc(S(=O)(=O)[O-])c(C(C)C)cc1O.[K+],MIC,Clostridium perfringens [10],0.37 %v/v
same,MIC,Salmonella typhimurium [11],1.25 %v/v
same,MIC,Escherichia coli [12],5 %v/v
same,MIC,Salmonella enteritidis,1.25 %v/v
Cc1ccc(C(C)C)cc1OCCn1c([N+](=O)[O-])cnc1C,MIC,Clostridium perfringens [13],1 µg/mL
CCN(CC)CC(O)COc1cc(C(C)C)ccc1C (stereo not given),pIC50,Acetylcholinesterase [8],6.87
Cc1ccc(C(C)C)c(/C=N/Nc2cc(Cl)ncn2)c1O,GI50,MIA PaCa-2,80 µg/mL
CCCCCCCCCCCC(=O)Oc1cc(C(C)C)ccc1C,MIC,Clostridium perfringens [10],<10 %v/v
same,MIC,Salmonella typhimurium [11],>10 %v/v
same,MIC,Escherichia coli [12],>10 %v/v
same,MIC,Salmonella enteritidis,>10 %v/v
CCN(CC)C(=O)COc1cc(C(C)C)ccc1C,pIC50,Acetylcholinesterase [1],5.71
same,pIC50,Cholinesterase,7.30
Cc1ccc(C(C)C)cc1OC(=O)COC(=O)/C=C/c1ccc(O)cc1,IC50,Mushroom tyrosinase,6500 nM
CSCC[C@H](NC(C)=O)C(=O)Oc1cc(C(C)C)ccc1C,MIC,[4],10 µg/mL
same,MIC,Staphylococcus aureus [5],10 µg/mL
same,MIC,Pseudomonas aeruginosa,5 µg/mL
same,MIC,Escherichia coli [6],10 µg/mL
Cc1ccc(S(=O)(=O)N/N=C/c2c(C(C)C)ccc(C)c2O)cc1,GI50,MIA PaCa-2,10 µg/mL
Cc1ccc(C(C)C)cc1OC(=O)COC(=O)c1ccc(O)cc1,IC50,Mushroom tyrosinase,14900 nM
